# Test system: T47D cells
# Test: Cellular Growth Inhibition Assay for T47D Cells (CellTiter-Glo)
# Format: cell-based, human
# Details: 72 hours
# How it was run: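 GI50 values derive from four-parameter regression of CellTiter-Glo 2.0 luminescence, using zero luminescence as baseline. Human breast cancer T47D cells (3000/well; DMEM, 10% FBS, 0.2 units/mL insulin) were exposed for 72 h to compound dilutions at 0.5% DMSO, with dosing starting 24 h after seeding.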
row,Structure (SMILES),GI50
1,Cn1cc(-c2cc(C(C)(C)O)ccc2Oc2ccc(N3CC4(C3)CN(c3ncc(C(=O)N[C@H]5C(C)(C)[C@H](Oc6ccc(C#N)c(Cl)c6)C5(C)C)cn3)CCO4)cc2)c2cc[nH]c2c1=O [Compound I-212],0.5 to 1.5 µM
2,CCS(=O)(=O)Nc1ccc(Oc2cccc(N3CC(CC4CN(c5ncc(C(=O)N[C@H]6C(C)(C)[C@H](Oc7ccc(C#N)c(Cl)c7)C6(C)C)cn5)C4)C3)c2)c(-c2cn(C)c(=O)c3[nH]ccc23)c1 [Compound I-158],< 0.5 µM
3,CCS(=O)(=O)Nc1ccc(Oc2cccc(OC3CC(C4CCN(c5ncc(C(=O)N[C@H]6C(C)(C)[C@H](Oc7ccc(C#N)c(Cl)c7)C6(C)C)cn5)CC4)C3)c2)c(-c2cn(C)c(=O)c3[nH]ccc23)c1 (stereo partly shown) [Compound I-104],< 0.5 µM
4,CCS(=O)(=O)c1ccc(Oc2cccc(OCCN3CCN(c4ncc5c(n4)CN([C@H]4C(C)(C)[C@H](Oc6ccc(C#N)c(Cl)c6)C4(C)C)C5=O)CC3)c2F)c(-c2cn(C)c(=O)c3[nH]ccc23)c1 [Compound I-217],< 0.5 µM
5,CN(C1CN(c2ccc(Oc3ccc(C(C)(C)O)cc3-c3cn(C)c(=O)c4[nH]ccc34)cc2)C1)C1CN(c2ncc(C(=O)N[C@H]3C(C)(C)[C@H](Oc4ccc(C#N)c(Cl)c4)C3(C)C)cn2)C1 [Compound I-238],< 0.5 µM
6,CN(CC1CCN(c2ncc(C(=O)N[C@H]3C(C)(C)[C@H](Oc4ccc(C#N)c(Cl)c4)C3(C)C)cn2)CC1)C1(c2ccc(Oc3ccc(C(C)(C)O)cc3-c3cn(C)c(=O)c4[nH]ccc34)cc2)COC1 [Compound I-255],< 0.5 µM

# Same assay, conditions: Homo sapiens, 72 hours
row,Structure (SMILES),GI50
1,CCS(=O)(=O)Nc1ccc(Oc2cccc(CCN3CC4CN(c5ncc(C(=O)N[C@H]6C(C)(C)[C@H](Oc7ccc(C#N)c(Cl)c7)C6(C)C)cn5)CC4C3)c2)c(-c2cn(C)c(=O)c3[nH]ccc23)c1 (stereo partly shown) [Compound I-119],< 0.5 µM
2,Cn1cc(-c2cc(N)ccc2Oc2cccc(OCCC3CCN(c4ncc(C(=O)N[C@H]5C(C)(C)[C@H](Oc6ccc(C#N)c(Cl)c6)C5(C)C)cn4)CC3)c2)c2cc[nH]c2c1=O [Compound I-101],0.5 to 1.5 µM
3,Cn1cc(-c2cc(C(C)(C)O)ccc2Oc2ccc(OCC3CCN(c4ncc(C(=O)N[C@H]5C(C)(C)[C@H](Oc6ccc(C#N)c(Cl)c6)C5(C)C)cn4)CC3)cc2)c2cc[nH]c2c1=O [Compound I-202],0.5 to 1.5 µM
4,Cn1cc(-c2cc(C(C)(C)O)ccc2Oc2ccc(N3CC(OC4CCN(c5ncc(C(=O)N[C@H]6C(C)(C)[C@H](Oc7ccc(C#N)c(Cl)c7)C6(C)C)cn5)CC4)C3)cc2)c2cc[nH]c2c1=O [Compound I-219],< 0.5 µM
5,"CCS(=O)(=O)Nc1ccc(Oc2cccc(N3CC4(CN(CC5CCN(c6ncc(C(=O)N[C@H]7C(C)(C)[C@H](Oc8ccc(C#N)c(Cl)c8)C7(C)C)cn6)CC5)C4)C3)c2)c(-c2cn(C)c(=O)c3[nH]ccc23)c1 [Compound I-35, N-((1r, 3r)-3-(3-chloro-4-cyanophenoxy)-2,2,4,4-tetramethylcyclobutyl)-2-(4-((6-(3-(4-(ethylsulfonamido)-2-(6-methyl-7-oxo-6,7-dihydro-1H-pyrrolo[2,3-c]pyridin-4-yl)phenoxy)phenyl)-2,6-diazaspiro[3.3]heptan-2-yl)methyl)piperidin-1-yl)pyrimidine-5-carboxamide]",< 0.5 µM
6,Cn1cc(-c2cc(C(C)(C)O)ccc2Oc2ccc(CCCC3CC4(C3)CN(c3ncc(C(=O)N[C@H]5C(C)(C)[C@H](Oc6ccc(C#N)c(Cl)c6)C5(C)C)cn3)C4)cc2)c2cc[nH]c2c1=O [Compound I-268],< 0.5 µM
7,CCS(=O)(=O)N(C)c1ccc(Oc2cccc(N3CCN(C4CN(c5ncc(C(=O)N[C@H]6C(C)(C)[C@H](Oc7ccc(C#N)c(Cl)c7)C6(C)C)cn5)C4)CC3)c2)c(-c2cn(C)c(=O)c3[nH]ccc23)c1 [Compound I-118],< 0.5 µM
8,"CCS(=O)(=O)Nc1ccc(Oc2cccc(OCCOC3CCN(c4cnc(C(=O)N[C@H]5C(C)(C)[C@H](Oc6ccc(C#N)c(Cl)c6)C5(C)C)cn4)CC3)c2)c(-c2cn(C)c(=O)c3[nH]ccc23)c1 [Compound I-71, N-((1r, 3r)-3-(3-chloro-4-cyanophenoxy)-2,2,4,4-tetramethylcyclobutyl)-5-(4-(2-(3-(4-(ethylsulfonamido)-2-(6-methyl-7-oxo-6,7-dihydro-1H-pyrrolo[2,3-c]pyridin-4-yl)phenoxy)phenoxy)ethoxy)piperidin-1-yl)pyrazine-2-carboxamide]",< 0.5 µM
9,Cn1cc(-c2cc(C(C)(C)O)ccc2Oc2ccc(CC3CCN(c4ncc(C(=O)N[C@H]5C(C)(C)[C@H](Oc6ccc(C#N)c(Cl)c6)C5(C)C)cn4)CC3)cc2)c2cc[nH]c2c1=O [Compound I-201],< 0.5 µM
10,"CCS(=O)(=O)Nc1ccc(Oc2cccc(OCCOC3CCN(c4ccc(C(=O)N[C@H]5C(C)(C)[C@H](Oc6ccc(C#N)c(Cl)c6)C5(C)C)cn4)CC3)c2)c(-c2cn(C)c(=O)c3[nH]ccc23)c1 [Compound I-70, N-((1r, 3r)-3-(3-chloro-4-cyanophenoxy)-2,2,4,4-tetramethylcyclobutyl)-6-(4-(2-(3-(4-(ethylsulfonamido)-2-(6-methyl-7-oxo-6,7-dihydro-1H-pyrrolo[2,3-c]pyridin-4-yl)phenoxy)phenoxy)ethoxy)piperidin-1-yl)nicotinamide]",< 0.5 µM
11,CC(C)N(C1CCN(c2ncc(C(=O)N[C@H]3C(C)(C)[C@H](Oc4ccc(C#N)c(Cl)c4)C3(C)C)cn2)CC1)C1CN(c2cccc(Oc3ccc(C(C)(C)O)cc3-c3cn(C)c(=O)c4[nH]ccc34)c2F)C1 [Compound I-221],0.5 to 1.5 µM
12,Cn1cc(-c2cc(N)ccc2Oc2cccc(N3CC(N4CCN(c5ncc(C(=O)N[C@H]6C(C)(C)[C@H](Oc7ccc(C#N)c(Cl)c7)C6(C)C)cn5)CC4)C3)c2F)c2cc[nH]c2c1=O [Compound I-93],0.5 to 1.5 µM
13,Cn1cc(-c2cc(C(C)(C)O)ccc2Oc2ccc(N3CC(CC4CN(c5ncc(C(=O)N[C@H]6C(C)(C)[C@H](Oc7ccc(C#N)c(Cl)c7)C6(C)C)cn5)C4)C3)cc2)c2cc[nH]c2c1=O [Compound I-280],< 0.5 µM
14,CN(C1CCN(c2ncc(C(=O)N[C@H]3C(C)(C)[C@H](Oc4ccc(C#N)c(Cl)c4)C3(C)C)cn2)CC1)C1CN(c2ccc(Oc3ccc(C(C)(C)O)cc3-c3cn(C)c(=O)c4[nH]ccc34)cc2)C1 [Compound I-208],< 0.5 µM
15,Cn1cc(-c2cc(C(C)(C)O)ccc2Oc2ccc(OCCN3CCN(c4ncc(C(=O)N[C@H]5C(C)(C)[C@H](Oc6ccc(C#N)c(Cl)c6)C5(C)C)cn4)CC3)cc2)c2cc[nH]c2c1=O [Compound I-204],< 0.5 µM
16,Cn1cc(-c2cc(C(C)(C)O)ccc2Oc2cccc(N3CC4(CN(c5ncc(C(=O)N[C@H]6C(C)(C)[C@H](Oc7ccc(C#N)c(Cl)c7)C6(C)C)cn5)CCO4)C3)c2F)c2cc[nH]c2c1=O [Compound I-216],< 0.5 µM
17,CCS(=O)(=O)Nc1ccc(Oc2cccc(N3CC(N(C)C4CN(c5ncc(C(=O)N[C@H]6C(C)(C)[C@H](Oc7ccc(C#N)c(Cl)c7)C6(C)C)cn5)C4)C3)c2)c(-c2cn(C)c(=O)c3[nH]ccc23)c1 [Compound I-120],< 0.5 µM
18,Cn1cc(-c2cc(N)ccc2Oc2cccc(OCCN3CCN(c4ncc(C(=O)N[C@H]5C(C)(C)[C@H](Oc6ccc(C#N)c(Cl)c6)C5(C)C)cn4)CC3)c2F)c2cc[nH]c2c1=O [Compound I-100],1.5 to 3 µM
19,CCS(=O)(=O)Nc1ccc(Oc2cccc(OC3CCC4(CC3)CCN(c3ncc(C(=O)N[C@H]5C(C)(C)[C@H](Oc6ccc(C#N)c(Cl)c6)C5(C)C)cn3)CC4)c2)c(-c2cn(C)c(=O)c3[nH]ccc23)c1 [Compound I-45],< 0.5 µM

# From US20250388605A1, “HETEROBIFUNCTIONAL COMPOUNDS AND METHODS OF TREATING DISEASE” (Halda Therapeutics OpCo, Inc., priority 2022, published 2025)
